In US8299119B2, “Biologically active compounds” (Bio-Active Export Pty. Ltd., priority 2005, dated 2012):
Values after ≈ are worked out from the molar mass of the structure shown.

Legend:
[1] = system: prostaglandin E2 production in 3T3 Swiss Albino fibroblast cells; assay: Inhibition of prostaglandin E2 production in calcium ionophore stimulated cells; assay type: cell-based; design: Anti-inflammatory capacity, Average (PGE2 assay): unit: %; details: for dose response in PGE2 assay: over the concentration range tested; for IC50: range of concentrations, read-out: IC 50 values, Average (PGE2 assay)
Experimental: Samples were tested for their ability to inhibit prostaglandin E2 production in cells stimulated by a calcium ionophore, compared to stimulated cells not exposed to any sample. Inhibition was tested over a range of 3 concentrations, although a dose response was not observed for most samples. This is probably because the samples are very efficient at inhibiting PGE2 production and the range of concentrations used was too narrow. The data presented are the maximal inhibition of PGE2 observed for a given sample.
3T3 Swiss Albino fibroblast cell suspension (Phenol-red free DMEM with 10% FBS and 2 mM L-glutamine) was plated out into 96-well tissue culture plates (1×10^5 cells/mL, 100 μL/well). The cells were cultured overnight at 37° C., 5% CO2. […] Cells+samples were incubated (37° C., 3 hours), before the addition of calcium ionophore A23187. Following 20 min incubation, the plate was centrifuged (1000 g, 3 min) and the supernatants were removed. Included on the plate was a positive control (aspirin; 100 μM), and DMSO control, both with and without calcium ionophore A23187.
The supernatants were diluted by serial dilution (1:500) in enzyme immunoassay (EIA) buffer, and assayed for PGE2 using the Prostaglandin E2 EIA Monoclonal Kit (Cayman Chemical; Cat No. 514010), according to manufacturers' instructions.

[2] = ORAC (oxygen radical absorbance capacity) assay; details: for Antioxidant capacity (ORAC): pure compounds, Table 13; for ORAC value: Centipeda fractions, Table 7
Experimental: The antioxidant capacity of the Centipeda fractions was measured using the ORAC procedure (Oxygen Radical Absorbance Capacity). A water soluble analogue of vitamin E, Trolox, was used as a reference standard, and the ORAC value is expressed as μmol of trolox equivalence (TE) per gram of sample extract.
The ORAC assay employed in this study measured the antioxidant scavenging activity in the test samples, against peroxyl radicals induced by 2,2′-azobis(2-amidinopropane)dihydrochloride (AAPH) at 37° C. Fluorescein was used as the fluorescent probe. The method used is based on that of Huang et al.^1, Huang et al.^2 and Prior et al.^3 ^1 Huang et al., 2002. Journal of Agricultural and Food Chemistry 50(16): 1815-1821.^2 Huang et al., 2002. Journal of Agricultural and Food Chemistry 50(16): 4437-4444.^3 Prior et al., 2003. Journal of Agricultural and Food Chemistry 51(11): 3273-3279.
All samples were assayed using the hydrophilic ORAC procedure in serial dilution×4 with acetone:water:acetic acid; 70:29.5:0.5 (A:W:A,) and in quadruplicate, starting with the concentration relevant to the sample, depending on the approximated antioxidant capacity from an initial screen.
Trolox, a water soluble analogue of vitamin E, was used as a reference standard. A trolox standard curve was established from trolox standards prepared at 100, 50, 25, and 12.5 μM in A:W:A.
Briefly, 10 μL fluorescein (6.0×10^−7 M), 20 μL samples/standards/control/blank (A:W:A) and 170 μL […] (20 mM) were added per well. Immediately after loading, the plate was transferred to the plate reader preset to 37° C., and the fluorescence was measured 35 times at one minute intervals. The fluorescence readings were referenced to solvent blank wells. The final ORAC values were calculated using a regression equation between the Trolox concentration and the net area under the fluorescein decay curve, and where possible were expressed as Trolox equivalents (TE) as micromoles per gram of sample.

Compound | Anti-inflammatory capacity, Average (PGE2 assay) ([1]; 5.0 μg/mL) | dose response in PGE2 assay [1] | Antioxidant capacity (ORAC) [2] | IC50 ([1]; Fibroblast) | inhibition at 125 µg/mL ([1]; Fibroblast, sample 0.125 mg/mL, maximal inhibition observed, read-out: % inhibition of PGE2 production ± SEM) | ORAC value [2] | inhibition at 62.5 µg/mL ([1]; Fibroblast, sample 0.0625 mg/mL, maximal inhibition observed, read-out: % inhibition of PGE2 production ± SEM) | Anti-inflammatory capacity, Average (PGE2 assay) ([1]; 100 μM, positive control) | inhibition at 10 µM ([1]; Fibroblast, 0.01 mM, positive control, read-out: % inhibition of PGE2 production ± SEM)
COC(=O)/C(O)=C/C(OC(=O)/C=C/c1ccc(O)c(O)c1)C(OC(=O)/C=C/c1ccc(O)c(O)c1)C(O)C(=O)O (stereo not drawn) [Compound 9, 4ξ,5ξ-Di-O-caffeoyl-2,6ξ-dihydroxyhept-2-en-1,7-dioic acid-1-methyl ester] | 45.00 | did not exhibit a standard dose response type curve | 6822 TE/g extract | – | – | – | – | – | –
COc1c(O)cc2oc(-c3ccc(O)cc3O)c(OC3OC(CO)C(O)C(O)C3O)c(=O)c2c1O (single isomer, unassigned) [Compound 1, 2′,4′,5,7-tetrahydroxy-6-methoxyflavone-3-O-β-glucopyranoside] | 52.2 | – | 12178 TE/g extract | 1.47 µg/mL (≈ 2.97 µM) | 67.8 ± 2.86% | 3871.9 μmol TE/g of extract | – | – | –
COC(=O)/C(O)=C/C(OC(=O)/C=C/c1ccc(O)c(O)c1)C(OC(=O)/C=C/c1ccc(O)c(O)c1)C(O)C(=O)OC (stereo not drawn) [Compound 10, 4ξ,5ξ-Di-O-caffeoyl-2,6ξ-dihydroxyhept-2-en-1,7-dioic acid-dimethyl ester] | 73.95 | did not exhibit a standard dose response type curve | 3957 TE/g extract | – | – | – | – | – | –
COC(=O)C(O)C(OC(=O)/C=C/c1ccc(O)c(O)c1)C(/C=C(\O)C(=O)O)OC(=O)/C=C/c1ccc(O)c(O)c1 (stereo not drawn) [Compound 8, 4ξ,5ξ-Di-O-caffeoyl-2,6ξ-dihydroxyhept-2-en-1,7-dioic acid-7-methyl ester] | 73.50 | – | 8122 TE/g extract | 4.73 µg/mL (≈ 8.44 µM) | – | – | – | – | –
O=C(/C=C/c1ccc(O)c(O)c1)OC(/C=C(\O)C(=O)O)C(OC(=O)/C=C/c1ccc(O)c(O)c1)C(O)C(=O)O (single isomer, unassigned) [Compound 2, 4ξ,5ξ-Di-O-caffeoyl-2,6ξ-dihydroxyhept-2-en-1,7-dioic acid] | 67.38 | – | 13781 TE/g extract | 2.48 µg/mL (≈ 4.54 µM) | – | 3415.1 μmol TE/g of extract | 74.5 ± 8.06% | – | –
CC(=O)Oc1ccccc1C(=O)O [Aspirin, aspirin, reference compound] | – | – | – | – | – | – | – | 54.6 | 57.4 ± 14.4%
